Results as given in patent US10233184B2, “7-substituted sulfonimidoylpurinone compounds and derivatives for the treatment and prophylaxis of virus infection” (Hoffmann-La Roche Inc., priority 2016, dated 2019).
Converted amounts (≈) assume the structure as drawn. Like-named read-outs stand apart in the source and are kept apart here.

How the values were obtained:
human TLR7 = molecular target: T1, human TLR7 (Homo sapiens, UniProt Q9NYK1); experiment: HEK293-Blue-hTLR-7 cells assay (SEAP reporter); type: cell-based; conditions: for EC50: HEK293-Blue-hTLR-7 cells, SEAP reporter, 20 hrs; for Ratio (EC50(prodrug)/EC50(active form)): EC50 of prodrug over EC50 of corresponding active form
T1 sequence (Q9NYK1 27-1049): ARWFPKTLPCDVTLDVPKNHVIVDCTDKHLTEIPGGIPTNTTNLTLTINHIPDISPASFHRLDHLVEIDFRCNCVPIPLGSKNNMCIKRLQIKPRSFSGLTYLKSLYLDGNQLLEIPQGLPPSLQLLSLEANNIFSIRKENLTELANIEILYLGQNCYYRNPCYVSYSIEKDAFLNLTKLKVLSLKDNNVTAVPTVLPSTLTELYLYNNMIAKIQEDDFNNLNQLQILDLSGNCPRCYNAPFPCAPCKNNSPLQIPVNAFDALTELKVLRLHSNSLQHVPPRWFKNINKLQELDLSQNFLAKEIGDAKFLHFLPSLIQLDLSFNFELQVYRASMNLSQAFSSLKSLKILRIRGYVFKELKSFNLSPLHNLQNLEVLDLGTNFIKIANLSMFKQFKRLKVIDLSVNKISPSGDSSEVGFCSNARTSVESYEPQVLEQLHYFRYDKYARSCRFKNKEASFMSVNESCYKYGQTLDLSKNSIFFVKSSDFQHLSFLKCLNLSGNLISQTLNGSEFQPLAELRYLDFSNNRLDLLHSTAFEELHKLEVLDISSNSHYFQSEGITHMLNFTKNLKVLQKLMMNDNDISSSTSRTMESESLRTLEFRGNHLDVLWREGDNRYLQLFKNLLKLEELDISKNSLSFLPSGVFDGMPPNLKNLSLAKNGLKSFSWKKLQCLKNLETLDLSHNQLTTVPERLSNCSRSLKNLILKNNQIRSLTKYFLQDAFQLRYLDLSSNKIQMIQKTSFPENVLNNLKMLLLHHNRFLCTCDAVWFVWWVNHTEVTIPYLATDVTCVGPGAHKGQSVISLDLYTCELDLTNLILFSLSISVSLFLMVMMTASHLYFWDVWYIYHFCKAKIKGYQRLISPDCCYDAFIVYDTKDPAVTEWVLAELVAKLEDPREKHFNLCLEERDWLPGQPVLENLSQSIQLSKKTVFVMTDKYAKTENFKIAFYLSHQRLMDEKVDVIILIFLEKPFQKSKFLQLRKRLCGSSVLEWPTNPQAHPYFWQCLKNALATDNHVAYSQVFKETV
Source text: HEK293-Blue-hTLR-7 Cells Assay:
A stable HEK293-Blue-hTLR-7 cell line was purchased from InvivoGen (Cat.#: hkb-htlr7, San Diego, Calif., USA). These cells were designed for studying the stimulation of human TLR7 by monitoring the activation of NF-κB. A SEAP (secreted embryonic alkaline phosphatase) reporter gene was placed under the control of the IFN-β minimal promoter fused to five NF-κB and AP-1-binding sites. The SEAP was induced by activating NF-κB and AP-1 via stimulating HEK-Blue hTLR7 cells with TLR7 ligands. Therefore the reporter expression was regulated by the NF-κB promoter upon stimulation of human TLR7 for 20 hrs. The cell culture supernatant SEAP reporter activity was determined using QUANTI-Blue™ kit (Cat.#: rep-qbl, Invivogen, San Diego, Calif., USA) at a wavelength of 640 nm, a detection medium that turns purple or blue in the presence of alkaline phosphatase.
HEK293-Blue-hTLR7 cells were incubated at a density of 250,000˜450,000 cells/mL in a volume of 180 μL in a 96-well plate in Dulbecco's Modified Eagle's medium (DMEM) containing 4.5 g/L glucose, 50 U/mL penicillin, […], […], 2 mM L-glutamine, 10% (V/V) heat-inactivated fetal bovine serum for 24 hrs. Then the HEK293-Blue-hTLR-7 cells were incubated with addition of 20 μL test compound in a serial dilution in the presence of final DMSO at 1% and perform incubation under 37° C. in a CO2 incubator for 20 hrs. Then 20 μL of the supernatant from each well was incubated with 180 μL Quanti-blue substrate solution at 37° C. for 2 hrs and the absorbance was read at 620˜655 nm using a spectrophotometer. The signalling pathway that TLR7 activation leads to downstream NF-κB activation has been widely accepted, and therefore similar reporter assay was also widely used for evaluating TLR7 agonist (Tsuneyasu Kaisho and Takashi Tanaka, Trends in Immunology, Volume 29, Issue 7, July 2008, […]; Hiroaki Hemmi et al, Nature Immunology 3, 196-200 (2002)).
The Compounds and Examples of the present invention were tested in HEK293-hTLR-7 assay for their TLR7 agonism activity as described herein and results are listed in Table 1. […] The calculated ratio of EC50(prodrug)/EC50(active form) were within the range from 32 to about 7600.

LYSA solubility study = type: physicochemical; conditions: for solubility thermodynamic: phosphate buffer, pH 6.5, aqueous buffer, thermodynamic from solid; for LYSA of Prodrugs: aqueous solubility, 0.05M phosphate buffer pH 6.5
Procedure: LYSA study is used to determine the aqueous solubility of tested compounds. Samples were prepared in duplicate from 10 mM DMSO stock solution. After evaporation of DMSO with a centrifugal vacuum evaporator, the compounds were dissolved in 0.05M phosphate buffer (pH 6.5), stirred for one hour and shaken for two hours. After one night, the solutions were filtered using a microtiter filter plate. Then the filtrate and its 1/10 dilution were analyzed by HPLC-UV. […] The results were in μg/mL. In case the percentage of sample measured in solution after evaporation divided by the calculated maximum of sample amount was bigger than 80%, the solubility was reported as bigger than this value.

[1] = Single dose PK study in male Wister-Han rats; type: in vivo; conditions: male, Wister-Han, rat, plasma, po, 5 mg/kg, 5 mg/kg oral dosing of active form
Procedure: The single dose PK in Male Wister-Han Rats was performed to assess pharmacokinetic properties of tested compounds. Two groups of animals were dosed via Gavage (POE) of the respective compound. […] Blood samples were placed into tubes containing EDTA-K2 anticoagulant and centrifuged at 5000 rpm for 6 min at 4° C. to separate plasma from the samples. After centrifugation, the resulting plasma was transferred to clean tubes for bioanalysis of both prodrug and active form on LC/MS/MS. In the groups that prodrug were dosed, the concentration of prodrugs in the plasma samples was under the detection limit. The “tested compound” in Table 8 was used as the internal standard for testing the metabolite (active form) of “dose compound” in vivo. The pharmacokinetic parameters were calculated using non-compartmental module of WinNonlin® Professional 6.2. The peak concentration (Cmax) was recorded directly from experimental observations. The area under the plasma concentration-time curve (AUC0-t) was calculated using the linear trapezoidal rule up to the last detectable concentration. Cmax and AUC0-last are two critical PK parameters related to the in vivo efficacy of the tested compound. Compounds with higher Cmax and AUC0-last will lead to the better in vivo efficacy.

[2] = prodrug, read-out: HEK293-hTLR-7 EC50 (Prodrug)
[3] = 0.05M phosphate buffer pH 6.5, read-out: LYSA of Prodrugs

| Compound | Ratio (EC50(prodrug)/EC50(active form)) (human TLR7) | EC50 (human TLR7; [2]) | solubility thermodynamic (LYSA solubility study; [3]) | LYSA of Prodrugs (LYSA solubility study) | also measured |
| --- | --- | --- | --- | --- | --- |
| CC[S@](=N)(=O)c1nc(N)c2[nH]c(=O)n(Cc3ccc(C)cc3)c2n1 (single isomer, unassigned) [Compound 43e-B] | – | – | – | – | EC50 (human TLR7; active form, read-out: HEK293-hTLR-7 EC50 (Active form)): 0.035 µM; solubility thermodynamic (LYSA solubility study; 0.05M phosphate buffer pH 6.5, read-out: LYSA of Active Forms): 13 µg/mL (≈ 37.5 µM) |
| CCCN(C)C(=O)n1c(=O)n(Cc2ccccc2)c2nc(S(=N)(=O)CCC)nc(N)c21 (single isomer, unassigned) [Example 1-A] | 634.3 | 42.5 µM | 315 µg/mL (≈ 707 µM) | – | – |
| CCCS(=N)(=O)c1nc(N)c2c(n1)n(Cc1ccccc1)c(=O)n2C(=O)N(C)CCOC (single isomer, unassigned) [Example 2-A] | 43.0 | 3.7 µM | > 600 µg/mL | – | – |
| CCCS(=N)(=O)c1nc(N)c2c(n1)n(Cc1ccccc1)c(=O)n2C(=O)N(C)CCOC (single isomer, unassigned) [Example 2-B] | 65.7 | 4.4 µM | – | >590 µg/mL | – |
| CCCN(C)C(=O)n1c(=O)n(Cc2ccc(C)cc2)c2nc([S@@](=N)(=O)CC)nc(N)c21 (single isomer, unassigned) [Example 43-B] | 2240 | 78.4 µM | 170 µg/mL (≈ 382 µM) | – | – |
| CCCN(C)C(=O)n1c(=O)n(Cc2ccc(F)cc2)c2nc(S(=N)(=O)CC)nc(N)c21 (single isomer, unassigned) [Example 45-A] | – | 153 µM | > 560 µg/mL | – | – |
| CCCN(C)C(=O)n1c(=O)n(Cc2ccc(F)cc2)c2nc([S@@](=N)(=O)CC)nc(N)c21 (single isomer, unassigned) [Example 45-B] | – | > 1000 µM | 420 µg/mL (≈ 934 µM) | – | – |
| CCN(C)C(=O)n1c(=O)n(Cc2ccc(F)cc2)c2nc(S(=N)(=O)CC)nc(N)c21 (single isomer, unassigned) [Example 46-A] | – | 45.5 µM | – | 205 µg/mL | – |
| CCN(C)C(=O)n1c(=O)n(Cc2ccc(F)cc2)c2nc(S(=N)(=O)CC)nc(N)c21 (single isomer, unassigned) [Example 46-B] | – | 45.7 µM | – | >580 µg/mL | – |
| CCCN(C)C(=O)n1c(=O)n(Cc2ccc(Br)cc2)c2nc([S@@](=N)(=O)CC)nc(N)c21 (single isomer, unassigned) [Example 47-B] | – | 13.1 µM | 128 µg/mL (≈ 251 µM) | – | – |
| CCN(C)C(=O)n1c(=O)n(Cc2ccc(Br)cc2)c2nc(S(=N)(=O)CC)nc(N)c21 (single isomer, unassigned) [Example 48-A] | – | 18.3 µM | 305 µg/mL (≈ 614 µM) | – | – |
| CCN(C)C(=O)n1c(=O)n(Cc2ccc(Br)cc2)c2nc(S(=N)(=O)CC)nc(N)c21 (single isomer, unassigned) [Example 48-B] | – | 20.8 µM | – | 275 µg/mL | – |
| CCCN(C)C(=O)n1c(=O)n(Cc2ccc(C)cc2)c2nc([S@@](=N)(=O)CCC)nc(N)c21 (stereo in doubt) [Example 36-B, 6-amino-N-methyl-8-oxo-N-propyl-2[S(R)-propylsulfonimidoyl]-9-(p-tolylmethyl)purine-7-carboxamide] | – | – | – | 209 µg/mL | – |
| CCN(C)C(=O)n1c(=O)n(Cc2ccc(Cl)cc2)c2nc([S@@](=N)(=O)CC)nc(N)c21 (stereo in doubt) [Example 42-B, 6-Amino-9-[(4-chlorophenyl)methyl]-N-ethyl-2-[S(R)-ethylsulfonimidoyl]-N-methyl-8-oxo-purine-7-carboxamide] | 578.8 | 49.2 µM | – | 335 µg/mL | – |
| CCCN(C)C(=O)n1c(=O)n(Cc2ccccc2)c2nc(S(=N)(=O)CCC)nc(N)c21 (stereo not drawn) [Example 1, 6-Amino-9-benzyl-N-methyl-8-oxo-N-propyl-2-(propylsulfonimidoyl)purine-7-carboxamide] | 775.4 | 50.4 µM | 290 µg/mL (≈ 651 µM) | – | – |
| CCCS(=N)(=O)c1nc(N)c2c(n1)n(Cc1ccccc1)c(=O)n2C(=O)N(C)[C@@H](C)C(=O)OCC (stereo partly drawn) [Example 17, Ethyl(2S)-2-[[6-amino-9-benzyl-8-oxo-2-(propylsulfonimidoyl)purine-7-carbonyl]-methyl-amino]propanoate] | – | – | 190 µg/mL (≈ 377 µM) | – | – |
| CCCN(C)C(=O)n1c(=O)n(Cc2ccc(F)cc2)c2nc(S(=N)(=O)CC)nc(N)c21 (stereo not drawn) [Example 45, 6-amino-2-(ethylsulfonimidoyl)-9-[(4-fluorophenyl)methyl]-N-methyl-8-oxo-N-propyl-purine-7-carboxamide] | – | – | 172 µg/mL (≈ 383 µM) | – | – |
| CCS(=O)(=O)c1nc(N)c2[nH]c(=O)n(Cc3ccc(C)cc3)c2n1 [Example S-3, reference compound] | – | – | – | – | AUC(0-t) [1]: 0.095 µM·h; Cmax [1]: 11.5 nM; concentration at 0.25 h ([1]; 0.25 h): 8.89 nM; concentration at 0.5 h ([1]; 0.5 h): 9.99 nM; concentration at 1 h ([1]; 1 h): 10.2 nM; concentration at 2 h ([1]; 2 h): 8.4 nM; concentration at 4 h ([1]; 4 h): 11.5 nM; concentration at 8 h ([1]; 8 h): 8.17 nM |
